Experimental data published in ChEMBL document CHEMBL2163265, “Antifungal peptides at membrane interaction” (Eur J Med Chem, 2012).
Activity calls are given as the source filed them. The rule behind the calls is not given here. Where a SMILES comes first, the peptide text is derived from it.

Experiments:
Candida albicans [1] = assay: Binding affinity to Candida albicans MYA-2876 membrane at 2 mg/ml incubated for 15 mins on ice followed by 45 mins in room temperature by fluorescence microscopic analysis; assay type: functional
Candida albicans [2] = assay: Binding affinity to Candida albicans ATCC 90028 membrane at 2 mg/ml incubated for 15 mins on ice followed by 45 mins in room temperature by fluorescence microscopic analysis; assay type: functional

N=C(N)NCCC[C@@H]1NC(=O)[C@H](CCCNC(=N)N)NC(=O)[C@H](Cc2c[nH]c3ccccc23)NC(=O)[C@H](Cc2c[nH]c3ccccc23)NC(=O)[C@H](CCCNC(=N)N)NC(=O)[C@H](Cc2ccccc2)NC(=O)[C@H](Cc2c[nH]cn2)NC1=O (cyclo(FRWWRRH))
Activity (Candida albicans [1]): Active
Activity (Candida albicans [2]): Active
